Test results reported in US12275712B2, “Triterpene derivatives as HIV inhibitors” (HETERO LABS LIMITED, priority 2019, dated 2025).

Columns and labels:
HIV-1 strain 92HT599 = test: Antiviral activity against HIV-1 strain 92HT599 in MT2 cells (p24 estimation); type: cell-based; conditions: Human immunodeficiency virus 1; HIV-1 strain 92HT599, MT2 cells, ~96 hours, p24; read-out: IC50
Method: MT2 cells were infected with HIV-1 strain 92HT599 (10 TCID 50/30000 cells). The infected cells were plated at the concentration of ˜30,000 cells per well in 96 well plate. Test compound was added to the micro plate in defined format with the final concentration of DMSO (vehicle) is not more than 1%. Incubation was carried out in CO2 incubator for ˜96 hours for viral infection. At the end of incubation period an aliquot from each well was taken for p24 estimation. The quantitation of p24 is an index for antiviral activity of the compound. Percent inhibition was calculated with reference to control values (vehicle controls). p24 estimation was carried out using Advance biosciences kit as per the procedure detailed by supplier.
The IC50 (nM) values are set forth in below Table-1.

pNL4-3 V7A = test: Antiviral activity against pNL4-3 V7A strain in MT4 cells (p24 estimation); type: cell-based, HIV-1; conditions: Human immunodeficiency virus 1, MT4, 96 h, read-out: pNL4-3 V7A IC50
Method: (§1) MT4 cells were Transfected with HIV-1 Plasmid (pNL4-3-WT & V7A) (Cells were incubating with required number of TCID50 of HIV-1 for 1.5 h at 37° C.). After infection, the infected cells were plated at the concentration of 3×10^4 cells per well in 96 well plate. Test compound was added to the test plate in defined format with the final concentration of DMSO is not more than 1%. Incubation was carried out in CO2 incubator for 4 days for viral infection. At the end of incubation period an aliquot from each well was taken for p24 estimation. p24 estimation was carried out using Advance biosciences kit as per the procedure detailed by supplier.

pNL4-3 WT = test: Antiviral activity against pNL4-3 WT strain in MT4 cells (p24 estimation); type: cell-based, HIV-1; conditions: Human immunodeficiency virus 1, MT4, 96 h, read-out: pNL4-3 WT IC50
Method: as §1

Row | Structure (SMILES) | IC50 (HIV-1 strain 92HT599) [nM] | IC50 (pNL4-3 V7A) [nM] | IC50 (pNL4-3 WT) [nM]
1 | CC(C)S(=O)(=O)N1CCN([C@@H](C)CN[C@]23CC[C@@H](C4(C)CC4)[C@@H]2[C@H]2CC[C@@H]4[C@@]5(C)CC[C@H](OC(=O)[C@H]6C[C@@H](C(=O)O)C6(C)C)C(C)(C)[C@@H]5CC[C@@]4(C)[C@]2(C)CC3)CC1 [Example 11, (1R,3S)-3-((((1R,3aS,5aR,5bR,7aR,9S,11aR,11bR,13aR,13bR)-3a-(((S)-2-(4-(isopropylsulfonyl)piperazin-1-yl)propyl)amino)-5a,5b,8,8,11a-pentamethyl-1-(1-methylcyclopropyl)icosahydro-1H-cyclopenta[a]chrysen-9-yl)oxy)carbonyl)-2,2-dimethyl cyclobutane-1-carboxylic acid] | < 10 | 1 to 50 | < 10
2 | CC(C)S(=O)(=O)N1CCN([C@H](CN[C@]23CC[C@@H](C4(C)CC4)[C@@H]2[C@H]2CC[C@@H]4[C@@]5(C)CC[C@H](OC(=O)[C@H]6C[C@@H](C(=O)O)C6(C)C)C(C)(C)[C@@H]5CC[C@@]4(C)[C@]2(C)CC3)[C@@H](C)O)CC1 [Example 14, (1R,3S)-3-((((1R,3aS,5aR,5bR,7aR,9S,11aR,11bR,13aR,13bR)-3a-(((2R,3R)-3-hydroxy-2-(4-(isopropylsulfonyl)piperazin-1-yl)butyl)amino)-5a,5b,8,8,11a-pentamethyl-1-(1-methylcyclopropyl)icosahydro-1H-cyclopenta[a]chrysen-9-yl)oxy)carbonyl)-2,2-dimethylcyclobutane-1-carboxylic acid] | < 10 | 1 to 50 | < 10
3 | CC1([C@@H]2CC[C@]3(NC[C@@H](CF)N4CCS(=O)(=O)CC4)CC[C@]4(C)[C@H](CC[C@@H]5[C@@]6(C)CC[C@H](OC(=O)[C@H]7C[C@@H](C(=O)O)C7(C)C)C(C)(C)[C@@H]6CC[C@]54C)[C@@H]23)CC1 [Example 9, (1R,3S)-3-((((1R,3aS,5aR,5bR,7aR,9S,11aR,11bR,13aR,13bR)-3a-(((S)-2-(1,1-dioxidothiomorpholino)-3-fluoropropyl)amino)-5a,5b,8,8,11a-pentamethyl-1-(1-methylcyclopropyl)icosahydro-1H-cyclopentachrysen-9-yl)oxy)carbonyl)-2,2-dimethyl cyclobutane-1-carboxylic acid] | < 10 | 50 to 100 | 10 to 50
4 | C=C(C)[C@@H]1CC[C@]2(NC[C@H]([C@@H](C)OC(=O)COCCOC)N3CCS(=O)(=O)CC3)CC[C@]3(C)[C@H](CC[C@@H]4[C@@]5(C)CC[C@H](OC(=O)[C@H]6C[C@@H](C(=O)O)C6(C)C)C(C)(C)[C@@H]5CC[C@]43C)[C@@H]12 [Example 19, (1R,3S)-3-((((1R,3aS,5aR,5bR,7aR,9S,11aR,11bR,13aR,13bR)-3a-(((2R,3R)-2-(1,1-dioxidothiomorpholino)-3-(2-(2-methoxyethoxy)acetoxy)butyl)amino)-5a,5b,8,8,11a-pentamethyl-1-(prop-1-en-2-yl)icosahydro-1H-cyclopentachrysen-9-yl)oxy)carbonyl)-2,2-dimethylcyclobutane-1-carboxylic acid] | < 10 | 1 to 50 | < 10
